This data set in a line: Solubility of DEX in oils (shake flask). The format is physicochemical. The note with it: Labrafil M1944 CS versus medium-chain triglycerides, soybean oil, olive oil; 37 °C, 72 h. On the procedure:
The solubility of drug in oils is the basis for the selection of the oil phase. The solubility of DEX in various oils, including medium-chain triglycerides, soybean oil, olive oil, and Labrafil® M1944 CS was determined by the shake flask method. Briefly, an excessive amount of DEX was added to 1mL of oil in an Eppendorf tube and mixed in a water bath sonication. Then the tubes were placed in a water bath shaker at 37 ± 0.5 °C. After shaking for 72 h, the samples were centrifuged at 10,000 rpm for 10 min. The supernatant was extracted with ethanol solution by sonicating for 20 min and centrifuging at 10,000 rpm for 10 min. The DEX concentration in the supernatant was determined by high-performance liquid chromatography. […] Next, the effect of the amount of Labrafil® M1944 CS content on the physicochemical properties of the DEX NEs was screened (Table S1). When the amount of Labrifil® M 1944 CS was 50 mg, DEX NEs had higher drug content (0.64±0.003mg/mL) and EE (91.3±2.8%), and this formulation was selected to further prepare DEX SC-NEs.

“Also recorded” adds a separate entry of the source.

Take `C[C@@H]1C[C@H]2[C@@H]3CCC4=CC(=O)C=C[C@]4(C)[C@@]3(F)[C@@H](O)C[C@]2(C)[C@@]1(O)C(=O)CO` [DEX, Dexamethasone]: the solubility in oil entry was “high solubility; also recorded: highest”.

(Values after article PMC10964573, “OCTN2- and ATB^0,+-targeted nanoemulsions for improving ocular drug delivery” (Journal of Nanobiotechnology, 2024).)
